Series [1] in a line: Screening of crystallization inhibitors: sorafenib content in polymer carrier/cholate medium over time. The class given is physicochemical. The note with it: pH 6.8 phosphate + 0.1% SDS with the inhibitor, 37° C.
Series [2] is described as follows: Solubility test of solid dispersions (pH 1.0 hydrochloric acid, pH 6.8 phosphate buffer, FaSSGF, FaSSIF). It counts as physicochemical. As to conditions: pH 1.0 hydrochloric acid solution, 37° C., main drug:carrier 1:3. The protocol: An appropriate amount of solid dispersion (SD) was added to a pH 1.0 hydrochloric acid solution and a pH 6.8 phosphate buffer solution, while keeping the SD in excess, and shaken at 37° C. in a shaker at 300 rpm.

Molecules are shown by their SMILES. Structures can show the parent of a compound that is named as a salt.

From US20230310393A1 (Tianjin Creatron Biotechnology Co., Ltd., priority 2020, published 2023) come the findings set out here.

Take `C[C@H](CCC(=O)NCC(=O)[O-])[C@H]1CC[C@H]2[C@@H]3[C@H](O)C[C@@H]4C[C@H](O)CC[C@]4(C)[C@H]3C[C@H](O)[C@]12C.[Na+]` [0.3% SGC, sodium glycocholate]: the Sorafenib content detection in series [1] (0.5 h) turned out to be 14.32 µg/mL; in series [1] (1 h), 5.88 µg/mL; in series [1] (2 h), 4.32 µg/mL; in series [1] (3 h) it was 3.98 µg/mL; in series [1] (4 h), 3.77 µg/mL; in series [1] (6 h), 3.57 µg/mL.

As for `C[C@H](CCC(=O)NCC(=O)[O-])[C@H]1CC[C@H]2[C@@H]3[C@H](O)C[C@@H]4C[C@H](O)CC[C@]4(C)[C@H]3CC[C@]12C.[Na+]` [0.3% SGCDC, sodium glycochenodeoxycholate], the Sorafenib content detection in series [1] (0.5 h) is 61.59 µg/mL; in series [1] (1 h) it was 47.08 µg/mL; in series [1] (2 h), 10.41 µg/mL; in series [1] (3 h) it was 5.38 µg/mL; in series [1] (4 h), 4.28 µg/mL; in series [1] (6 h) it was 3.68 µg/mL.

Consider `C[C@H](CCC(=O)NCC(=O)[O-])[C@H]1CC[C@H]2[C@@H]3CC[C@@H]4C[C@H](O)CC[C@]4(C)[C@H]3C[C@H](O)[C@]12C.[Na+]` [0.3% SGDC, sodium glycodeoxycholate], for which the Sorafenib content detection in series [1] (0.5 h) worked out at 15.78 µg/mL; in series [1] (1 h), 6.28 µg/mL; in series [1] (2 h) it was 4.11 µg/mL; in series [1] (3 h), 4.01 µg/mL; in series [1] (4 h), 4.04 µg/mL; in series [1] (6 h), 3.87 µg/mL.

Take `C[C@H](CCC(=O)NCCS(=O)(=O)[O-])[C@H]1CC[C@H]2[C@@H]3[C@@H](O)C[C@@H]4C[C@H](O)CC[C@]4(C)[C@H]3CC[C@]12C.[Na+]` [0.3% STCDC]: the Sorafenib content detection came out at 14.43 µg/mL in series [1] (0.5 h); 6.22 µg/mL in series [1] (1 h); 4.69 µg/mL in series [1] (2 h); 4.79 µg/mL in series [1] (3 h); 4.81 µg/mL in series [1] (4 h); 5.79 µg/mL in series [1] (6 h).

Regarding `C[C@H](CCC(=O)NCCS(=O)(=O)[O-])[C@H]1CC[C@H]2[C@@H]3CC[C@@H]4C[C@H](O)CC[C@]4(C)[C@H]3C[C@H](O)[C@]12C.[Na+]` [0.3% STDC, sodium taurodeoxycholate], the Sorafenib content detection turned out to be 47.72 µg/mL in series [1] (0.5 h); 25.90 µg/mL in series [1] (1 h); 11.19 µg/mL in series [1] (2 h); 7.82 µg/mL in series [1] (3 h); 6.58 µg/mL in series [1] (4 h); 5.90 µg/mL in series [1] (6 h).

A word on the Solubility: it is the dissolved amount per volume that the medium holds. Consider `CNC(=O)c1cc(Oc2ccc(NC(=O)Nc3ccc(Cl)c(C(F)(F)F)c3)cc2)ccn1` [TSSLFN, Sorafenib tosylate], for which the Solubility in series [2] (0.5 h) was determined as 3.7 µg/mL; in series [2] (2 h), 4.1 µg/mL; in series [2] (4 h) it was 4.1 µg/mL.
